Results on 9 compounds are retold here after US9732077B2, “Diazepane orexin receptor antagonists” (MERCK SHARP & DOHME CORP., priority 2013, dated 2017).

One assay addresses T1, human orexin-2 receptor (Homo sapiens, UniProt O43614).
T1 construct: expressed in transfected cells; host or cells: CHO cells (G418 selection)
T1 sequence (O43614 1-444): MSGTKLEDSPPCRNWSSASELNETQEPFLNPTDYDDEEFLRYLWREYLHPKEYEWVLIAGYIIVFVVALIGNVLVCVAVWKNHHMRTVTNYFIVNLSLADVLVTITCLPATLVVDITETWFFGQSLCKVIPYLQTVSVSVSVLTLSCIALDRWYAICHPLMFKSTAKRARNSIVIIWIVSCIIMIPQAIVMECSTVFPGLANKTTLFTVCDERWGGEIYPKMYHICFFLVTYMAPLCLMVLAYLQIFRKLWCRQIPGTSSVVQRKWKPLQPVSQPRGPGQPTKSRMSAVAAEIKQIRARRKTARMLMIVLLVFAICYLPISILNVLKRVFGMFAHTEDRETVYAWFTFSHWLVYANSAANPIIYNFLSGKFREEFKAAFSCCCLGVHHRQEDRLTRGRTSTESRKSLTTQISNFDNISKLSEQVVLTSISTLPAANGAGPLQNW
In words: OX2R FLIPR Ca flux assay (CHO cells). Conditions: for IC50: CHO cells expressing human orexin-2 receptor, agonist 70 pM Ala-6,12 orexin-A; for Fold Selectivity OX2R vs. OX1R: ratio of OX1R FLIPR to OX2R FLIPR. The format is cell-based. How it is done: (§1) The utility of the compounds in accordance with the present invention as orexin receptor OX1R and/or OX2R antagonists may be readily determined without undue experimentation by methodology well known in the art, including the “FLIPR Ca^+ Flux Assay” (Okumura et al., Biochem. Biophys. Res. Comm. 280:976-981, 2001). In a typical experiment the OX1 and OX2 receptor antagonistic activity of the compounds of the present invention was determined in accordance with the following experimental method. For intracellular calcium measurements, Chinese hamster ovary (CHO) cells expressing the rat orexin-1 receptor or the human orexin-2 receptor, are grown in Iscove's modified DMEM containing 2 mM L-glutamine, […], 1% hypoxanthine-thymidine supplement, 100 U/ml penicillin, 100 μg/ml streptomycin and 10% heat-inactivated fetal calf serum (FCS). The cells are seeded at 20,000 cells/well into Becton-Dickinson black 384-well clear bottom sterile plates coated with poly-D-lysine. All reagents were from GIBCO-Invitrogen Corp. The seeded plates are incubated overnight at 37° C. and 5% CO2. Ala-6,12 human orexin-A as the agonist is prepared as a 1 mM stock solution in 1% bovine serum albumin (BSA) and diluted in assay buffer (HBSS containing 20 mM HEPES, 0.1% BSA and 2.5 mM probenecid, pH7.4) for use in the assay at a final concentration of 70 pM. Test compounds are prepared as 10 mM stock solution in DMSO, then diluted in 384-well plates, first in DMSO, then assay buffer. On the day of the assay, cells are washed 3 times with 100 μl assay buffer and then incubated for 60 min (37° C., 5% CO2) in 60 μl assay buffer containing 1 μM Fluo-4AM ester, 0.02% pluronic acid, and 1% BSA. The dye loading solution is then aspirated and cells are washed 3 times with 100 μl assay buffer. 30 μl of that same buffer is left in each well. Within the Fluorescent Imaging Plate Reader (FLIPR, Molecular Devices), test compounds are added to the plate in a volume of 25 μl, incubated for 5 min and finally 25 μl of agonist is added. Fluorescence is measured for each well at 1 second intervals for 5 minutes and the height of each fluorescence peak is compared to the height of the fluorescence peak induced by 70 pM Ala-6,12 orexin-A with buffer in place of antagonist. For each antagonist, IC50 value (the concentration of compound needed to inhibit 50% of the agonist response) is determined. Alternatively, compound potency can be assessed by a radioligand binding assay (described in Bergman et. al. Bioorg. Med. Chem. Lett. 2008, 18, 1425-1430) in which the inhibition constant (Ki) is determined in membranes prepared from CHO cells expressing either the OX1 or OX2 receptor. The intrinsic orexin receptor antagonist activity of a compound which may be used in the present invention may be determined by these assays.

The target in the next assay is T2, rat orexin-1 receptor (Rattus norvegicus, UniProt P56718).
T2 construct: expressed in transfected cells; host or cells: CHO cells (G418 selection)
T2 sequence (P56718 1-416): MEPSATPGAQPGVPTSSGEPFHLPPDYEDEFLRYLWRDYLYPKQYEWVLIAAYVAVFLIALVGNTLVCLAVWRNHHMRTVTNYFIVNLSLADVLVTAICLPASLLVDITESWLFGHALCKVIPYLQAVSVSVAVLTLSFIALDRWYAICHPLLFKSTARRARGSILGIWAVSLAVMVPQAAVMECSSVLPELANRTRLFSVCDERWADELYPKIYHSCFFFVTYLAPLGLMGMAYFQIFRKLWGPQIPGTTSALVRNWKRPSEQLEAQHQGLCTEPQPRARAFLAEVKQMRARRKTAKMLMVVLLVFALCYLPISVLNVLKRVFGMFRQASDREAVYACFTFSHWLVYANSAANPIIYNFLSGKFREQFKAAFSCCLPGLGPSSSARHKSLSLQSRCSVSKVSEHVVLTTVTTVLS
Nature of the assay: OX1R FLIPR Ca flux assay (CHO cells). The settings on record: CHO cells expressing rat orexin-1 receptor; agonist 70 pM Ala-6,12 orexin-A. The format is cell-based. As to the method: as §1

The term IC50 denotes the concentration that gives 50% inhibition. A high value points to weaker potency in that assay. As to `Cc1oc(N2CCCN(C(=O)c3ccc(F)cc3-n3nccn3)CC2)nc1C(C)(C)O` [Example 18, 2-[2-(4-{[4-fluoro-2-(2H-1,2,3-triazol-2-yl)phenyl]carbonyl}-1,4-diazepan-1-yl)-5-methyl-1,3-oxazol-4-yl]propan-2-ol], at human orexin-2 receptor, the IC50 was 20 nM and the “Fold Selectivity OX2R vs. OX1R” value came to 145 fold. At rat orexin-1 receptor, the IC50 turned out to be 2900 nM.
For `CCOc1ccccc1C(=O)N1CCCN(c2nc(C(C)(C)O)c(C)o2)CC1` [Example 19, 2-(2-{4-[(2-ethoxyphenyl)carbonyl]-1,4-diazepan-1-yl}-5-methyl-1,3-oxazol-4-yl)propan-2-ol], in that order: 19 nM, 170 fold and 3240 nM.
The like results for `Cc1oc(N2CCCN(C(=O)c3ccccc3-n3cccn3)CC2)nc1C(C)(C)O` [Example 20, 2-[5-methyl-2-(4-{[2-(1H-pyrazol-1-yl)phenyl]carbonyl}-1,4-diazepan-1-yl)-1,3-oxazol-4-yl]propan-2-ol] were, in that order, 35 nM, 179 fold and 6290 nM.
Consider `CCOc1ncccc1C(=O)N1CCCN(c2nc(C(C)(C)O)c(C)o2)CC1` [Example 21, 2-(2-{4-[(2-ethoxypyridin-3-yl)carbonyl]-1,4-diazepan-1-yl}-5-methyl-1,3-oxazol-4-yl)propan-2-ol], for which the half-inhibitory concentration (IC50) at human orexin-2 receptor stood at 34 nM; on rat orexin-1 receptor, 7890 nM. In addition, the “Fold Selectivity OX2R vs. OX1R” value on human orexin-2 receptor is recorded as 231 fold.
The like results for `CC(C)(O)c1csc(N2CCCN(C(=O)c3cccnc3OCC(F)F)CC2)n1` [Example 22, (2-(2,2-difluoroethoxy)pyridin-3-yl)(4-(4-(2-hydroxypropan-2-yl)thiazol-2-yl)-1,4-diazepan-1-yl)methanone] were, in that order, 90 nM, more than 10000 nM and more than 111 fold.
The like results for `CC(C)(O)c1csc(N2CCCN(C(=O)c3cccnc3OCC(F)(F)F)CC2)n1` [Example 23, (4-(4-(2-hydroxypropan-2-yl)thiazol-2-yl)-1,4-diazepan-1-yl)(2-(2,2,2-trifluoroethoxy)pyridin-3-yl)methanone] were, in that order, 57 nM, more than 10000 nM and more than 175 fold.
For `CC(C)(O)c1csc(N2CCCN(C(=O)c3ccccc3OC(F)(F)F)CC2)n1` [Example 24, (4-(4-(2-hydroxypropan-2-yl)thiazol-2-yl)-1,4-diazepan-1-yl)(2-(trifluoromethoxy)phenyl)meth-anone], in that order: 216 nM, more than 10000 nM and more than 46 fold.
Take `CC(C)(O)c1csc(N2CCCN(C(=O)c3ccccc3C3CC3)CC2)n1` [Example 25, (2-cyclopropylphenyl)(4-(4-(2-hydroxypropan-2-yl)thiazol-2-yl)-1,4-diazepan-1-yl)methanone]: at human orexin-2 receptor, the 50% inhibitory concentration (IC50) is 108 nM and the “Fold Selectivity OX2R vs. OX1R” value was more than 92 fold. Also, the half-maximal inhibitory concentration (IC50) on rat orexin-1 receptor was more than 10000 nM.
Take `CC(C)(O)c1csc(N2CCCN(C(=O)c3ccc(F)cc3-n3nccn3)CC2)n1` [Example 26, (4-fluoro-2-(2H-1,2,3-triazol-2-yl)phenyl)(4-(4-(2-hydroxypropan-2-yl)thiazol-2-yl)-1,4-diazepan-1-yl)methanone]: at human orexin-2 receptor, the 50% inhibitory concentration (IC50) amounted to 136 nM and the “Fold Selectivity OX2R vs. OX1R” value is recorded as more than 73 fold. In addition, on rat orexin-1 receptor, the concentration for half-maximal inhibition (IC50) was more than 10000 nM.
